The values that follow come from ChEMBL document CHEMBL1201862, “PubChem BioAssay data set” (2004).

Active and inactive are the calls of the source.

A short description of series [1]: viability loss of HMLE_sh_eGFP cells – cell-based, luminescence, counter-screen for HMLE_sh_ECad selective toxicity project, dose response (AID 463074).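 Further: HMLE human mammary epithelial cells expressing control shRNA against eGFP.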 The class given is functional, Homo sapiens. For orientation: A counterscreen serves to expose hits that act by an unwanted route or on another target.
A short description of series [2]: Luminescence Cell-Based Dose Retest to Confirm Inhibitors of Cancer Stem Cells. [Related pubchem assays (depositor defined):AID2717, AID2721]. The class given is functional, Homo sapiens. To be noted: Homo sapiens.
A short description of series [3]: Vero E6 cell cytotoxicity, dose response, cytotoxicity control for non-replicating M. tuberculosis project, secondary assay (AID 492998). The class given is functional, VeroE6. To be noted: Vero C1008.
For series [4], the system named is HEK293. Put plainly: SAR Analysis of small molecule inhibitors of T-cell specific antigen receptor-induced NF-kB activation in a HEK-293T cell line using a luminescence assay - Set 2. [Related pubchem assays (depositor defined):AID435003, AID435012, AID489026]. The class given is functional, cell-based. The following applies: Homo sapiens.
For series [5], the system named is HEK293. Put plainly: HEK293T cell viability loss, resazurin readout – resazurin fluorescence, cytotoxicity control for NF-kB activator project, SAR follow-up (AID 493251). The class given is functional, cell-based. The following applies: Homo sapiens. In general terms: Resazurin is reduced to fluorescent resorufin, in cell work by metabolically active cells.
A short description of series [6]: fluconazole-exposed Candida albicans growth modulators – fluorescence, retest, confirmation (AID 2467). The class given is functional, cell-based.
Series [7] in a line: NIH-3T3 fibroblast cytotoxicity, dose response, cytotoxicity control, cell-based, fluorescence, Alamar Blue, secondary assay (AID 2327).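 Further: NIH-3T3 mouse fibroblasts cultured with fluconazole at 8 µg/mL.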 The class given is functional.
Series [8] can be described thus: HepG2 cell cytotoxicity, dose response, cytotoxicity control for non-replicating M. tuberculosis project (AID 489018). The class given is functional. To be noted: Mycobacterium tuberculosis.
Series [9] in a line: cells. The class given is functional.
The nature of series [10]: THP-1 cell cytotoxicity, dose response, cytotoxicity control for non-replicating M. tuberculosis project (AID 489025). The class given is functional.
Series [11] concerns Jurkat. Description: SAR Analysis of small molecule inhibitors of T-cell specific antigen receptor-induced NF-kB activation in a Jurkat cell line using a luminescence assay - Set 2. [Related pubchem assays (depositor defined):AID435003, AID435012, AID465]. To be noted: Homo sapiens. The class given is functional, cell-based.
Series [12] has as its target Beta-arrestin-1 (Homo sapiens, UniProt P49407). Put plainly: beta-arrestin/AP2 interaction blockers, potency – biochemical, cherry pick 1, beta2-adaptin appendage, flow cytometry, dose response (AID 588783). The class given is functional. In general terms: Flow cytometry measures light scatter and fluorescence of single cells or particles in a stream.
Series [13] concerns the target Eukaryotic translation initiation factor 4E (Mus musculus, UniProt P63073). Description: blockers of eIF4G binding by eIF4E – biochemical, TR-FRET, dose response (AID 855).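 Further: potency for disrupting eIF4E binding to eIF4GI seen as loss of FRET.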 The class given is functional.
Series [14] has as its target Phosphoethanolamine/phosphocholine phosphatase (Homo sapiens, UniProt Q8TCT1). Description: SAR assay for compounds that inhibit PHOSPHO1. [Related pubchem assays (depositor defined):AID1545, AID1565, AID1574].
For series [15], the target named is T1, Hexokinase-1 (Homo sapiens, UniProt P19367).
T1 sequence (P19367 whole entry): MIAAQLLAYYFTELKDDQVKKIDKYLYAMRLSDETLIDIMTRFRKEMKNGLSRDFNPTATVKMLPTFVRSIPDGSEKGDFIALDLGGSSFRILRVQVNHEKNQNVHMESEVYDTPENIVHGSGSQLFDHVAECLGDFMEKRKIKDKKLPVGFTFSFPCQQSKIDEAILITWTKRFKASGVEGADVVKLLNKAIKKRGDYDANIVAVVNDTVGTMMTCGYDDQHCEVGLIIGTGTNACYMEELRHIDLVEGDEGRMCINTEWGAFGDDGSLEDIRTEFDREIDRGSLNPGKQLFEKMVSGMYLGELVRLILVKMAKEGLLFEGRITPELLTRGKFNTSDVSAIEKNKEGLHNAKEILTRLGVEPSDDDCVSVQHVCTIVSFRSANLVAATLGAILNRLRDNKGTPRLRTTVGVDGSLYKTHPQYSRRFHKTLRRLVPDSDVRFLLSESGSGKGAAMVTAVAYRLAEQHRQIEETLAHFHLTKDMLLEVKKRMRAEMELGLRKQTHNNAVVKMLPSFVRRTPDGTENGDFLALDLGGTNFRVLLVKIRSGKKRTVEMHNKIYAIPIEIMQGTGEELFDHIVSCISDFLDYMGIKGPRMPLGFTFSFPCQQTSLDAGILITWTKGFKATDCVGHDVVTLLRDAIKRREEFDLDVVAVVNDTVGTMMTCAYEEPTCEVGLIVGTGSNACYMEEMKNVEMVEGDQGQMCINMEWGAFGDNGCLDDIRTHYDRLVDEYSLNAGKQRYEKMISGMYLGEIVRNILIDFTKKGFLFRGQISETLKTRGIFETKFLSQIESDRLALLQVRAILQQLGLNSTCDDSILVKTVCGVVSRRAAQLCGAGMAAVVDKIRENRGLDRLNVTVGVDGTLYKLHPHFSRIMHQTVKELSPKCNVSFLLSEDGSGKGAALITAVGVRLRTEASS
Put plainly: HK1 enzyme activation by HKDC1 hits – biochemical, selectivity assay for HKDC1 activator project, dose response (AID 504762). The class given is functional.

Series [16] deals with Streptococcus sp. 'group A'. Put plainly: Streptococcus pyogenes SK(-)GAS viability under kanamycin – luminescence, BacTiterGlo, confirmation, counter-screen for streptokinase expression inhibitor project, dose response (AID 1900). The class given is functional, organism-based. To be noted: read-out: EC50.
Series [17] deals with Streptococcus. Put plainly: GAS UMAA2166 growth inhibition – luminescence, BacTiterGlo, counter-screen for streptokinase expression inhibitor project, dose response (AID 1915).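 Further: potency for reduction of bacterial viability or growth.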 The class given is functional, organism-based.
The target of series [18] is Perilipin-1/ABHD5 (Homo sapiens, UniProt O60240+Q8WTS1). Description: Luminescence-based biochemical high throughput dose response assay for inhibitors of the interaction of the lipase co-activator protein, abhydrolase domain containing 5 (ABHD5) with perilipin-1 (PLIN1) (2K validation set). [Related pubchem assays (depositor defined):AID493027, AID493057].
Perilipin-1/ABHD5, sequence (Q8WTS1 whole entry, the tested form may be a part): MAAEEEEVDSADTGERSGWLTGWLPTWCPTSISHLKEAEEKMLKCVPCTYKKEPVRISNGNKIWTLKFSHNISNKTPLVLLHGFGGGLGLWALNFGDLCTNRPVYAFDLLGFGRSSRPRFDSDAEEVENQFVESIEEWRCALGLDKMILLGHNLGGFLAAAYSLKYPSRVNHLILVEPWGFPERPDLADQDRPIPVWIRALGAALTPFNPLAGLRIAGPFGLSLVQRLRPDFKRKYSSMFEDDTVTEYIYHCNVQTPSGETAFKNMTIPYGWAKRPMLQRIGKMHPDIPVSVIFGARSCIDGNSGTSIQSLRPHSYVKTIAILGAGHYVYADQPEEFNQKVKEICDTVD
Perilipin-1/ABHD5, sequence (O60240 whole entry, the tested form may be a part): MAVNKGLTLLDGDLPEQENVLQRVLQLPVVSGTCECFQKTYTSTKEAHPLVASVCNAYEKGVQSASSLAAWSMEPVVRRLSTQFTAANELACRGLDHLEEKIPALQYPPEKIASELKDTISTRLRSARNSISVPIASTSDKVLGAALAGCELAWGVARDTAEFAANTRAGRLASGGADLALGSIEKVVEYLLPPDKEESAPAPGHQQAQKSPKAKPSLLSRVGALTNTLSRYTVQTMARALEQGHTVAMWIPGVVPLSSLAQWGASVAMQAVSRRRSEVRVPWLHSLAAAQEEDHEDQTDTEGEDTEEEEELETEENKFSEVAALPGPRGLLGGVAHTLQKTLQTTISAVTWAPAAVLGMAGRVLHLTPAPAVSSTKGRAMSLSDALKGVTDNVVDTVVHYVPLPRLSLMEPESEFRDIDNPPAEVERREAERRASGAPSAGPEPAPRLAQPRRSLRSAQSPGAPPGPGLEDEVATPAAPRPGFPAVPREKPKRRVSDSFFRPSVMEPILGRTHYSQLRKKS
Series [19] deals with 1-acylglycerol-3-phosphate O-acyltransferase ABHD5/Perilipin-5 (Homo sapiens, UniProt Q00G26+Q8WTS1). Put plainly: Luminescence-based biochemical high throughput dose response assay for inhibitors of the interaction of the lipase co-activator protein, abhydrolase domain containing 5 (ABHD5) with perilipin-5 (MLDP; PLIN5) (2K validation set). [Related pubchem assays (depositor defined):AID493035, AID493241].
1-acylglycerol-3-phosphate O-acyltransferase ABHD5/Perilipin-5, sequence (Q00G26 whole entry, the tested form may be a part): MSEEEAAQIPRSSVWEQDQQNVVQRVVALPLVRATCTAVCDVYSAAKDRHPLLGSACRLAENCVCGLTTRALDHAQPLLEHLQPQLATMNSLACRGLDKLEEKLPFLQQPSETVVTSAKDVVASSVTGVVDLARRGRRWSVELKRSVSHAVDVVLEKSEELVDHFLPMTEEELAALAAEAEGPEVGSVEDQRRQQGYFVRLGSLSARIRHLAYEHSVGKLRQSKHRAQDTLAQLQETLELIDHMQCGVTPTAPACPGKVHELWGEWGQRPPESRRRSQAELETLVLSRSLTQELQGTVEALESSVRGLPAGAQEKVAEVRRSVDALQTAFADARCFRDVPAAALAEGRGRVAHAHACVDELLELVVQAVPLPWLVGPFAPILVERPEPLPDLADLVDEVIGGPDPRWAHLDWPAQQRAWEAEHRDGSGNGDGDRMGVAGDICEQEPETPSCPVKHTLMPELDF
1-acylglycerol-3-phosphate O-acyltransferase ABHD5/Perilipin-5, sequence (Q8WTS1 whole entry, the tested form may be a part): as the sequence (Q8WTS1 whole entry, the tested form may be a part) above

Series [20] concerns the target Glucose-6-phosphate 1-dehydrogenase (Homo sapiens, UniProt P11413). Description: inhibition of Homo sapiens G6PD, dose series – biochemical, fluorescence, selectivity assay for P. falciparum G6PD inhibitor project, dose response (AID 504792). The class given is functional.
In series [21] the target is Large T antigen (Simian virus 40, UniProt P03070). The class given is functional, Betapolyomavirus macacae.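 Further: Confirmatory-stage PubChem screen for compounds that inhibit SV40 T antigen.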
Large T antigen, sequence (P03070 whole entry): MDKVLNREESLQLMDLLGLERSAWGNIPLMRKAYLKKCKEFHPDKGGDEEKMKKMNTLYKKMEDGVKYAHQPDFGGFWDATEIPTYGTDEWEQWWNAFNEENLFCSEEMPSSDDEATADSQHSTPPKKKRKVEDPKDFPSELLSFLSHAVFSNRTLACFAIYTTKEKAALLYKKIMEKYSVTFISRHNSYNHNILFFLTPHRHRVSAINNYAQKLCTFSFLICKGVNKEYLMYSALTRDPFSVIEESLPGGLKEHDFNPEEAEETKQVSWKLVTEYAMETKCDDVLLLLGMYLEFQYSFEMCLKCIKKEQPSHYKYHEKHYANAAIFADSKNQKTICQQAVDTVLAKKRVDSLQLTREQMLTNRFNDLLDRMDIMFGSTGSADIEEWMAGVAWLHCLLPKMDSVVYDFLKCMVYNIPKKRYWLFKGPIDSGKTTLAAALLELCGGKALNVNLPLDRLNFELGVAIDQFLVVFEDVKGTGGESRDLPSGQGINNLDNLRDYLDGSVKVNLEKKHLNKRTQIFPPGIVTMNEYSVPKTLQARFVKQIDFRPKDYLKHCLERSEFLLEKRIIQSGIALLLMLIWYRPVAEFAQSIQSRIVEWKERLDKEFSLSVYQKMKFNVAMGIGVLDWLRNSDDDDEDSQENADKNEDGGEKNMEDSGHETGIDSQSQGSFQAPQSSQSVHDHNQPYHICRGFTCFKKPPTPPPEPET
For series [22], the target named is T2, Hexokinase HKDC1 (Homo sapiens, UniProt Q2TB90).
T2 sequence (Q2TB90 whole entry): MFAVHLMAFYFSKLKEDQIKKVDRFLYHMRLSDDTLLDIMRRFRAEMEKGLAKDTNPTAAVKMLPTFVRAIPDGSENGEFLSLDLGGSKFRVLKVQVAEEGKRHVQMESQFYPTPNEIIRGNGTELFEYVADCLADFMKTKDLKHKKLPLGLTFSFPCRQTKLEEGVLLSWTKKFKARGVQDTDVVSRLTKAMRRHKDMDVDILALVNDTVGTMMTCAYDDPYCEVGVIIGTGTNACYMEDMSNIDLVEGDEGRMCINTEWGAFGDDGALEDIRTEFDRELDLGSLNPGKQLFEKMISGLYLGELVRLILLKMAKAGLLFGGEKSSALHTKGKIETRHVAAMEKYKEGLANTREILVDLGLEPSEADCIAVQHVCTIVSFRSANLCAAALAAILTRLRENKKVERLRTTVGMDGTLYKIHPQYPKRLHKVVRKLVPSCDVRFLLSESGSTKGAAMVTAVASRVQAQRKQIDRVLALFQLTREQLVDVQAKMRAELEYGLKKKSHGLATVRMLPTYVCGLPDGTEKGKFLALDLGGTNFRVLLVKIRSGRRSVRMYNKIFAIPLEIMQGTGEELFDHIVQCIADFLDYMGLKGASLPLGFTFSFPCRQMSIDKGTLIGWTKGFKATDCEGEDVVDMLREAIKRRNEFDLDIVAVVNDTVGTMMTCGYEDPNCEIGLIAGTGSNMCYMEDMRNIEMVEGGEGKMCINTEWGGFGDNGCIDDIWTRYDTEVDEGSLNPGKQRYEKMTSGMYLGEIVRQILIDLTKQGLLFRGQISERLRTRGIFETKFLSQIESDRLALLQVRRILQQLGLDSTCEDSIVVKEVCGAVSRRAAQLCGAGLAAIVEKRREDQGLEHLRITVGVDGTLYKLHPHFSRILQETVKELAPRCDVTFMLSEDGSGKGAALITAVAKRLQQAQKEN
Put plainly: activation of HKDC1 glucose phosphorylation – biochemical, W721R variant, dose response (AID 504730). The class given is functional.

The target in series [23] is Voltage-gated inwardly rectifying potassium channel KCNH2 (Homo sapiens, UniProt Q12809). To be noted: Potency.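 Further: confirmatory quantitative high-throughput screen measuring inhibition of hERG channel activity.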
Voltage-gated inwardly rectifying potassium channel KCNH2, sequence (Q12809 whole entry): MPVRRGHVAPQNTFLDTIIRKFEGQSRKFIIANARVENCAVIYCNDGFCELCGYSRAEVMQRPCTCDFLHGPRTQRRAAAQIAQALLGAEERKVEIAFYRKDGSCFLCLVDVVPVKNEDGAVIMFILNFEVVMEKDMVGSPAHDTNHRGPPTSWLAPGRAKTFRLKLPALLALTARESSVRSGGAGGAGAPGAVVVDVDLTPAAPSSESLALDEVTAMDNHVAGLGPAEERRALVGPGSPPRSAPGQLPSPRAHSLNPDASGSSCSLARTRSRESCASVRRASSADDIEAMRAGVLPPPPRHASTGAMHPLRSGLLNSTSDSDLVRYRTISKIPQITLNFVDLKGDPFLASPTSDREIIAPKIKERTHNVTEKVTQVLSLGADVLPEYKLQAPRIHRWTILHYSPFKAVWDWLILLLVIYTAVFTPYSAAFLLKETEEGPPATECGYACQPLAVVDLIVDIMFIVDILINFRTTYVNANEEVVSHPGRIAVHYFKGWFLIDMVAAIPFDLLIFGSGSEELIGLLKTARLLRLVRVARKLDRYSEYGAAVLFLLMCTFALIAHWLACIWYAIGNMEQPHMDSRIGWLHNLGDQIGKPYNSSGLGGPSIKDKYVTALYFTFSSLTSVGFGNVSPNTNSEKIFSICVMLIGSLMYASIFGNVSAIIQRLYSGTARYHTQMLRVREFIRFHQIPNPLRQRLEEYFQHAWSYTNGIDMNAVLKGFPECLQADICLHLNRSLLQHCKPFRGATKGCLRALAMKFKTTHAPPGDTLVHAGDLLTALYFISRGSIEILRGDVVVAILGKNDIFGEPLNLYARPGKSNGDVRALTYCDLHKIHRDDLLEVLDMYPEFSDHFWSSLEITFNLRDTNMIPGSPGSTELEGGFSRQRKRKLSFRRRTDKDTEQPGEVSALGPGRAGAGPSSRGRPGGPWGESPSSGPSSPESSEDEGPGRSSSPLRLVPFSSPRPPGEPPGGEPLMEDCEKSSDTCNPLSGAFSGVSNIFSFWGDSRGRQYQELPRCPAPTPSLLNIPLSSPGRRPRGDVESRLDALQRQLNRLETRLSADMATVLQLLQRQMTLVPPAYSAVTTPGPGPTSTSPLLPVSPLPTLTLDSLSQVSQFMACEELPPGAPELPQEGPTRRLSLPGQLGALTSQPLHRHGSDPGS
The target in series [24] is T3, Cytochrome P450 1A2 (Homo sapiens, UniProt P05177).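 Further: PubChem cytochrome P450 panel assay, CYP1A2 panel member.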
T3 sequence (P05177 whole entry): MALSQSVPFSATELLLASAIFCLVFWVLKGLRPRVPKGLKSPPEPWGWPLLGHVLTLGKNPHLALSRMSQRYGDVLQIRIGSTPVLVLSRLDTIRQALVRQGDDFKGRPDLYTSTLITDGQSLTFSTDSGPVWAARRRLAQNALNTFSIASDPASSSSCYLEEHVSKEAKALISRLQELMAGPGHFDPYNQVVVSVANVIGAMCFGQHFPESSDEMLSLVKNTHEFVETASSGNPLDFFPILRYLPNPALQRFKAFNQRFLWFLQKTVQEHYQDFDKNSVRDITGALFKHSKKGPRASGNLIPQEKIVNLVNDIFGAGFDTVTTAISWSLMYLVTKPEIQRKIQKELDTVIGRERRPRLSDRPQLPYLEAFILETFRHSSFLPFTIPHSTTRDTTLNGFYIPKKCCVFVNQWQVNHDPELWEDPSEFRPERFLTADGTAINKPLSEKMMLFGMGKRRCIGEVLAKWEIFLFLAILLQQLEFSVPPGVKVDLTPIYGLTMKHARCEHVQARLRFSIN

Series [25] addresses Cytochrome P450 3A4 (Homo sapiens, UniProt P08684).
Series [26] in a line: Trypanosoma cruzi growth suppression in host cells – NIH3T3 host cells, beta-gal luminescence, confirmation (AID 2044).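 Further: intracellular parasites grown in NIH/3T3 mouse fibroblasts as host cells; luminescent beta-galactosidase reporter signal from transgenic T. cruzi replicating inside host cells; inhibitors lower the luminescence signal.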 The class given is functional, cell-based.
Series [27] is described as follows: NIH3T3 cell viability loss – ATP luminescence, mouse fibroblasts, counter-screen, dose response (AID 2010).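 Further: cells exposed to compound for about 90 hours before reading.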 The class given is functional, cell-based.
Series [28] is described as follows: T. cruzi infection blockers in NIH3T3 cells – beta-gal luminescence, NIH3T3 host cells, confirmation (AID 2630). The class given is functional, cell-based. To be noted: Mus musculus.
Series [29] in a line: Luminescence Cell-Based/Microorganism Confirmation at Dose of Inhibitors of Trypanosoma cruzi Infection. [Related pubchem assays: 1885, 1968 ]. The class given is functional.

Phosphoethanolamine/phosphocholine phosphatase, sequence (Q8TCT1 whole entry): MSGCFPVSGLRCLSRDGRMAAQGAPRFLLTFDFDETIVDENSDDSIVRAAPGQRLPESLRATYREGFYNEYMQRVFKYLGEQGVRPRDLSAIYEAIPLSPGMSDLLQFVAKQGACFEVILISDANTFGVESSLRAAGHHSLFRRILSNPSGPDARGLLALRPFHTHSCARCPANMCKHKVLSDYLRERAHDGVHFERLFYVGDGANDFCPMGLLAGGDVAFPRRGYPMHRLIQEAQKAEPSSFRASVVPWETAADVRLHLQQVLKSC
Cytochrome P450 3A4, sequence (P08684 whole entry): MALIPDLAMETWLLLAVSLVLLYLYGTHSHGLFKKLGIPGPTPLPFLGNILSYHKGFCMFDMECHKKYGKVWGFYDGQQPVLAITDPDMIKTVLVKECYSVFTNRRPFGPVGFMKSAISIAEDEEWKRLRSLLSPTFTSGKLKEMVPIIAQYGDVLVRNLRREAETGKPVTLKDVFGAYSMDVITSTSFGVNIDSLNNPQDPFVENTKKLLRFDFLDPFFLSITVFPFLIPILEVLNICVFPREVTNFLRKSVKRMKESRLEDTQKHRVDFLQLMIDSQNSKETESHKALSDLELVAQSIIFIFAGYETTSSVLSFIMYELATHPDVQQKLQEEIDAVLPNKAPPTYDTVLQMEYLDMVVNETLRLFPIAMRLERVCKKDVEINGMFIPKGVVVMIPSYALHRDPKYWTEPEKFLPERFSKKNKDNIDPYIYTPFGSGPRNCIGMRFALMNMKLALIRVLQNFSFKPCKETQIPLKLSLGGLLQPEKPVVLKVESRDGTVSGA
Beta-arrestin-1, sequence (P49407 whole entry): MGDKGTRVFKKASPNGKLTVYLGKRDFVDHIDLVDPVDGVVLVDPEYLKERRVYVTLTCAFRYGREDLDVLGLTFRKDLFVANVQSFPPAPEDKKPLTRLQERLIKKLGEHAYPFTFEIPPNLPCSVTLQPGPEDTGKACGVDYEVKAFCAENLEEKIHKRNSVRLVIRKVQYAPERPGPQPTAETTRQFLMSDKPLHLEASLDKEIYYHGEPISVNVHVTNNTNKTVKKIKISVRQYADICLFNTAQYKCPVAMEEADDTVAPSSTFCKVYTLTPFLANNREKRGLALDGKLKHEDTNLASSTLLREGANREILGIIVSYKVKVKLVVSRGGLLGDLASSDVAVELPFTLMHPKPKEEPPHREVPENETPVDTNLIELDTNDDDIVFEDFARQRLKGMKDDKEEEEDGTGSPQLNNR
Glucose-6-phosphate 1-dehydrogenase, sequence (P11413 whole entry): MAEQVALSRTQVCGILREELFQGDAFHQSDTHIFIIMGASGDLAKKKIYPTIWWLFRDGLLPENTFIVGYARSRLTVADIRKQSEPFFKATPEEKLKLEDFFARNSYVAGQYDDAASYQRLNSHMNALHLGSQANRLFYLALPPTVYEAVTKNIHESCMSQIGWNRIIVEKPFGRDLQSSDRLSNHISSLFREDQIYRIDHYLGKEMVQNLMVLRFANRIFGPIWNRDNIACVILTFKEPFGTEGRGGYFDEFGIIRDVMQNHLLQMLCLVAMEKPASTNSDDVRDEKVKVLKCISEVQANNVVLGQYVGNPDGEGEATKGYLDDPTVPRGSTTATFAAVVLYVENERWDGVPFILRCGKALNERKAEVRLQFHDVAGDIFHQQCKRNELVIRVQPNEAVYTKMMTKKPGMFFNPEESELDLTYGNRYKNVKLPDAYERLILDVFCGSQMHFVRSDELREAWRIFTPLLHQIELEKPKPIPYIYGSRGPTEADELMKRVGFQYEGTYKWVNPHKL

Turning to `CCC(C(=O)Nc1cc(OC)c(NC(=O)c2ccccc2)cc1OC)c1ccccc1` (centres undefined), the AC50 in [1] was 51.9 µM (active); in series [2] it was 4.24 µM (active).
Consider `Cc1ccc(NC(=O)c2ccc([N+](=O)[O-])o2)cc1C`, for which the CC50 in series [3] is 6.87 µM (active); in [8], 15.1 µM (active); in series [10], 16.2 µM (active). Further, the IC50 in series [4] was 38.6 µM (inactive); in series [5] it was 47.3 µM (inactive); in series [9], 700 nM (active); in series [11], 6.86 µM (active). Besides, the values for the EC50 in series [6] and in [7] were 1.87 µM (active) and 14.2 µM (active), respectively.
For the compound `O=c1c2ccccc2[se]n1-c1ccccc1` [EBSELEN], the IC50 in series [12] is 1.52 µM (active); in series [13], 1.15 µM (active); in [14], 111 nM (active); in series [18], 3.41 µM (active); in series [19], 1.1 µM (active); in series [20] it was 13.2 µM (active). In addition, the IC50 in series [21] is 13.9 µM (active). Also, the EC50 was 41.9 µM (inactive) in series [15], 1.1 µM (active) in series [16], 975 nM (active) in series [17] and 38.8 µM (inactive) in series [22]. The AC50 in series [23] is 35.5 µM (inconclusive).
As to `O=C(c1ccc2c(c1)N(Cc1ccc(F)cc1)C(=O)CS2)N1CCOCC1`, the AC50 entry in series [24] is “inconclusive”; in series [25] it was 25.1 µM (inconclusive).
Consider `CC1CCCN(C(=O)Cc2cn(Cc3cccc(Cl)c3)c3ccccc23)C1` (centres undefined), for which the EC50 in series [26] was 1.79 µM (active); in series [27], > 60 µM (not active); in [28] it was 2.81 µM (active); in [29] it was 2.81 µM (active).

As usually defined, the AC50 is the concentration giving half of the maximal activity seen. One may read the CC50 as the concentration that lowers cell viability or growth by half. The term IC50 denotes the concentration that gives 50% inhibition. The term EC50 denotes the midpoint of the concentration-response curve.
